Test system: MV-4-11 cells
Assay: Gene expression microarray analysis (Affymetrix PrimeView) and GSEA
Type: cell-based, human
Set-up: RFU PODN (11730768_x_at) / Fold change /veh PODN (11730768_x_at) / RFU LINC00158 (11744669_a_at) / Fold change /veh LINC00158 (11744669_a_at) / RFU DUSP10 (11751237_a_at) / Fold change /veh DUSP10 (11751237_a_at) / RFU ID3 (11757404_x_at) / Fold change /veh ID3 (11757404_x_at) / RFU PLEKHG5 (11737974_s_at) / Fold change /veh PLEKHG5 (11737974_s_at) / RFU LRRC4B (11730491_at) / Fold change /veh LRRC4B (11730491_at) / RFU GIMAP4 (11747438_a_at) / Fold change /veh GIMAP4 (11747438_a_at) / RFU KRT8 (11758183_x_at) / Fold change /veh KRT8 (11758183_x_at) / RFU CNN1 (11734310_a_at) / Fold change /veh CNN1 (11734310_a_at) / RFU VPS37D (11726825_at) / Fold change /veh VPS37D (11726825_at) / RFU C10orf10 (11716522_x_at) / Fold change /veh C10orf10 (11716522_x_at) / RFU KIR2DL2 /// KIR2DL4 /// KIR2DL5A /// KIR2DL5B /// KIR2DS1 /// KIR2DS2 /// KIR2DS3 /// KIR2DS4 /// KIR3DL3 /// KIR3DL3 /// KIR3DS1 (11738374_at) / Fold change /veh KIR2DL2 /// KIR2DL4 /// KIR2DL5A /// KIR2DL5B /// KIR2DS1 /// KIR2DS2 /// KIR2DS3 /// KIR2DS4 /// KIR3DL3 /// KIR3DL3 /// KIR3DS1 (11738374_at) / RFU C1QL1 (11718748_at) / Fold change /veh C1QL1 (11718748_at) / RFU TMPRSS4 (11747572_a_at) / Fold change /veh TMPRSS4 (11747572_a_at) / RFU HAMP (11756126_x_at) / Fold change /veh HAMP (11756126_x_at) / RFU RNFT2 (11725882_a_at) / Fold change /veh RNFT2 (11725882_a_at) / RFU NR4A2 (11747474_a_at) / Fold change /veh NR4A2 (11747474_a_at) / RFU ABCC12 (11746883_a_at) / Fold change /veh ABCC12 (11746883_a_at) / RFU TMEM136 (11760407_x_at) / Fold change /veh TMEM136 (11760407_x_at) / RFU CLDN22 /// WWC2 (11732394_at) / Fold change /veh CLDN22 /// WWC2 (11732394_at) / RFU HLA-DPB1 (11760878_x_at) / Fold change /veh HLA-DPB1 (11760878_x_at) / RFU SPINT1 (11716480_a_at) / Fold change /veh SPINT1 (11716480_a_at) / RFU GAP43 (11754022_s_at) / Fold change /veh GAP43 (11754022_s_at) / RFU A4GNT (11735810_at) / Fold change /veh A4GNT (11735810_at) / RFU PRB3 (11715151_x_at) / Fold change /veh PRB3 (11715151_x_at) / RFU TUBB4B (11761932_at) / Fold change /veh TUBB4B (11761932_at) / RFU CAPN14 (11732068_a_at) / Fold change /veh CAPN14 (11732068_a_at) / RFU TMCC2 (11721928_a_at) / Fold change /veh TMCC2 (11721928_a_at) / RFU IRGQ (11745062_a_at) / Fold change /veh IRGQ (11745062_a_at) / RFU FAM174B (11720279_a_at) / Fold change /veh FAM174B (11720279_a_at) / RFU TMPRSS4 (11748680_a_at) / Fold change /veh TMPRSS4 (11748680_a_at) / RFU FAM212B (11763350_a_at) / Fold change /veh FAM212B (11763350_a_at) / RFU PLEKHG5 (11743358_a_at) / Fold change /veh PLEKHG5 (11743358_a_at) / RFU ZSCAN30 (11745921_a_at) / Fold change /veh ZSCAN30 (11745921_a_at) / RFU CMKLR1 (11741424_a_at) / Fold change /veh CMKLR1 (11741424_a_at) / RFU LOC101060620 /// MAPK8IP1 (11723275_at) / Fold change /veh LOC101060620 /// MAPK8IP1 (11723275_at) / RFU SPTSSB (11747773_x_at) / Fold change /veh SPTSSB (11747773_x_at) / RFU PRSS12 (11739890_at) / Fold change /veh PRSS12 (11739890_at) / RFU BIN1 (11741810_x_at) / Fold change /veh BIN1 (11741810_x_at) / RFU WNT11 (11732464_a_at) / Fold change /veh WNT11 (11732464_a_at) / RFU C10orf10 (11716521_a_at) / Fold change /veh C10orf10 (11716521_a_at) / RFU C5orf56 (11738089_at) / Fold change /veh C5orf56 (11738089_at) / RFU CYB561 (11721691_x_at) / Fold change /veh CYB561 (11721691_x_at) / RFU ANKRD19P (11752326_a_at) / Fold change /veh ANKRD19P (11752326_a_at) / RFU OR2T12 /// OR2T33 /// OR2T8 (11738714_s_at) / Fold change /veh OR2T12 /// OR2T33 /// OR2T8 (11738714_s_at) / RFU VCAN (11748164_a_at) / Fold change /veh VCAN (11748164_a_at) / RFU JSRP1 (11732532_at) / Fold change /veh JSRP1 (11732532_at) / RFU KRTAP10-11 (11738290_x_at) / Fold change /veh KRTAP10-11 (11738290_x_at) / RFU MYO3A (11730013_a_at) / Fold change /veh MYO3A (11730013_a_at) / RFU EBF3 (11725865_a_at) / Fold change /veh EBF3 (11725865_a_at) / RFU CAMK2N1 (11719241_x_at) / Fold change /veh CAMK2N1 (11719241_x_at) / RFU C5orf56 (11738088_a_at) / Fold change /veh C5orf56 (11738088_a_at) / RFU OLFML3 (11715873_a_at) / Fold change /veh OLFML3 (11715873_a_at) / RFU LOC100653217 /// NTM (11731650_a_at) / Fold change /veh LOC100653217 /// NTM (11731650_a_at) / RFU MAPK11 (11762145_a_at) / Fold change /veh MAPK11 (11762145_a_at) / RFU FIZ1 (11724087_x_at) / Fold change /veh FIZ1 (11724087_x_at) / RFU OASL (11726364_x_at) / Fold change /veh OASL (11726364_x_at) / RFU SOX15 (11748057_x_at) / Fold change /veh SOX15 (11748057_x_at) / RFU CD79A (11719716_a_at) / Fold change /veh CD79A (11719716_a_at) / RFU HIST1H1D (11736915_at) / Fold change /veh HIST1H1D (11736915_at) / RFU CASKIN2 (11723855_a_at) / Fold change /veh CASKIN2 (11723855_a_at) / RFU LOC730098 (11760151_x_at) / Fold change /veh LOC730098 (11760151_x_at) / RFU OR4N2 (11742367_at) / Fold change /veh OR4N2 (11742367_at) / RFU PRRT2 (11749266_a_at) / Fold change /veh PRRT2 (11749266_a_at) / RFU SNX32 (11753110_a_at) / Fold change /veh SNX32 (11753110_a_at) / RFU CDHR5 (11726645_a_at) / Fold change /veh CDHR5 (11726645_a_at) / RFU RCAN1 (11760418_a_at) / Fold change /veh RCAN1 (11760418_a_at) / RFU FAM167A (11723789_a_at) / Fold change /veh FAM167A (11723789_a_at) / RFU FAM26E (11764081_at) / Fold change /veh FAM26E (11764081_at) / RFU ISYNA1 (11749810_s_at) / Fold change /veh ISYNA1 (11749810_s_at) / RFU ACY1 (11761880_at) / Fold change /veh ACY1 (11761880_at) / RFU 11764098_at / Fold change /veh 11764098_at / RFU SAMD14 (11745864_x_at) / Fold change /veh SAMD14 (11745864_x_at) / RFU NPB (11741838_a_at) / Fold change /veh NPB (11741838_a_at) / RFU TMPRSS6 (11731388_a_at) / Fold change /veh TMPRSS6 (11731388_a_at) / RFU KRTAP10-2 (11738614_at) / Fold change /veh KRTAP10-2 (11738614_at) / RFU ARHGAP8 /// PRR5-ARHGAP8 (11727945_x_at) / Fold change /veh ARHGAP8 /// PRR5-ARHGAP8 (11727945_x_at) / RFU KRTAP5-7 /// NADSYN1 (11734609_at) / Fold change /veh KRTAP5-7 /// NADSYN1 (11734609_at) / RFU RASL12 (11751679_a_at) / Fold change /veh RASL12 (11751679_a_at) / RFU CDKN2B (11736163_a_at) / Fold change /veh CDKN2B (11736163_a_at) / RFU PRF1 (11729649_at) / Fold change /veh PRF1 (11729649_at) / RFU, ZNF638 /// ZNF638-IT1 / Fold change vs veh, ZNF638 /// ZNF638-IT1 / RFU, PANK3 / Fold change vs veh, PANK3 / RFU, SH3YL1 / Fold change vs veh, SH3YL1 / RFU, ZEB2 / Fold change vs veh, ZEB2 / RFU, NRIP1 / Fold change vs veh, NRIP1 / RFU, PTTG1IP / Fold change vs veh, PTTG1IP / RFU, CAPN2 / Fold change vs veh, CAPN2 / RFU, MED14 / Fold change vs veh, MED14 / RFU, SNORA58 / Fold change vs veh, SNORA58 / RFU, C1orf63 / Fold change vs veh, C1orf63 / RFU, LRRFIP1 / Fold change vs veh, LRRFIP1 / RFU, NDUFAF7 / Fold change vs veh, NDUFAF7 / RFU, SLC12A2 / Fold change vs veh, SLC12A2 / RFU, IBTK / Fold change vs veh, IBTK / RFU, ESF1 / Fold change vs veh, ESF1 / Fold change vs veh, TMEM50B / RFU, TAOK1 / Fold change vs veh, TAOK1 / RFU, ACBD3 / Fold change vs veh, ACBD3 / RFU, TMA16 / Fold change vs veh, TMA16 / RFU, RWDD3 / Fold change vs veh, RWDD3 / RFU, BCAT1 / Fold change vs veh, BCAT1 / RFU, EDEM3 / Fold change vs veh, EDEM3 / RFU, TMEM33 / Fold change vs veh, TMEM33 / RFU, WDR75 / Fold change vs veh, WDR75 / RFU, AHCTF1 / Fold change vs veh, AHCTF1 / RFU, TFRC / Fold change vs veh, TFRC / RFU, ZDHHC17 / Fold change vs veh, ZDHHC17 / RFU, NOM1 / Fold change vs veh, NOM1 / RFU, ARL8B / Fold change vs veh, ARL8B / RFU, ZBTB11 / Fold change vs veh, ZBTB11 / RFU, TAMM41 / Fold change vs veh, TAMM41 / RFU, KIAA1704 /// LOC100996395 / Fold change vs veh, KIAA1704 /// LOC100996395 / RFU, ING1 / Fold change vs veh, ING1 / RFU, TRMT61B / Fold change vs veh, TRMT61B / RFU, FUBP3 / Fold change vs veh, FUBP3 / RFU, TP53 / Fold change vs veh, TP53 / RFU, TNKS2 / Fold change vs veh, TNKS2 / RFU, ZFP14 / Fold change vs veh, ZFP14 / RFU, ACTR2 / Fold change vs veh, ACTR2 / RFU, PPP3R1 / Fold change vs veh, PPP3R1 / RFU, PIK3R1 / Fold change vs veh, PIK3R1 / RFU, HNRNPA1 / Fold change vs veh, HNRNPA1 / RFU, RNF170 / Fold change vs veh, RNF170 / RFU, ZNF28 / Fold change vs veh, ZNF28 / RFU, RNGTT / Fold change vs veh, RNGTT / RFU, OGT / Fold change vs veh, OGT / RFU, BRD1 / Fold change vs veh, BRD1 / RFU, MARS / Fold change vs veh, MARS / RFU, ZNF655 / Fold change vs veh, ZNF655 / RFU, FAHD1 / Fold change vs veh, FAHD1 / RFU, BDP1 / Fold change vs veh, BDP1 / RFU, LRRCC1 / Fold change vs veh, LRRCC1 / RFU, ARID1A / Fold change vs veh, ARID1A / RFU, ZNF146 / Fold change vs veh, ZNF146 / RFU, ZNF330 / Fold change vs veh, ZNF330 / RFU, GPN3 / Fold change vs veh, GPN3 / RFU, C9orf123 / Fold change vs veh, C9orf123 / RFU, N4BP2L2 / Fold change vs veh, N4BP2L2 / RFU, ARFIP1 / Fold change vs veh, ARFIP1 / RFU, FAM179B / Fold change vs veh, FAM179B / RFU, BCL10 / Fold change vs veh, BCL10 / RFU, UHRF1BP1L / Fold change vs veh, UHRF1BP1L / RFU, BET1 / Fold change vs veh, BET1 / RFU, CNOT2 / Fold change vs veh, CNOT2 / RFU, ZNF268 / Fold change vs veh, ZNF268 / Fold change vs veh, ZNF507 / RFU, DGCR2 / Fold change vs veh, DGCR2 / RFU, WDSUB1 / Fold change vs veh, WDSUB1 / Fold change vs veh, HSP90B1 /// MIR3652 / RFU, ADSS / Fold change vs veh, ADSS / RFU, GK / Fold change vs veh, GK / RFU, ZNF148 / Fold change vs veh, ZNF148 / RFU, TAF9 / Fold change vs veh, TAF9 / RFU, SLC1A5 / Fold change vs veh, SLC1A5 / RFU, SLMO2 / Fold change vs veh, SLMO2 / RFU, ABCC4 / Fold change vs veh, ABCC4 / RFU, LOC101060439 /// RAP1B / Fold change vs veh, LOC101060439 /// RAP1B / RFU, RFX7 / Fold change vs veh, RFX7 / RFU, GTPBP10 / Fold change vs veh, GTPBP10 / RFU, CNEP1R1 / Fold change vs veh, CNEP1R1 / RFU, BIVM-ERCC5 /// ERCC5 / Fold change vs veh, BIVM-ERCC5 /// ERCC5 / RFU, ILF3 / Fold change vs veh, ILF3 / RFU 11762660_at / Fold change /veh 11762660_at / RFU VCAN (11757783_s_at) / Fold change /veh VCAN (11757783_s_at) / RFU DDX43 (11728927_at) / Fold change /veh DDX43 (11728927_at) / RFU KRT8 (11758188_x_at) / Fold change /veh KRT8 (11758188_x_at) / RFU NKD1 (11759106_at) / Fold change /veh NKD1 (11759106_at) / RFU SRD5A1 (11742802_a_at) / Fold change /veh SRD5A1 (11742802_a_at) / RFU TPSAB1 /// TPSB2 (11721975_s_at) / Fold change /veh TPSAB1 /// TPSB2 (11721975_s_at) / RFU GSTM3 (11746129_a_at) / Fold change /veh GSTM3 (11746129_a_at) / RFU IL23R (11737362_x_at) / Fold change /veh IL23R (11737362_x_at) / RFU TMEM51 (11727254_a_at) / Fold change /veh TMEM51 (11727254_a_at) / RFU PIWIL2 (11732686_x_at) / Fold change /veh PIWIL2 (11732686_x_at) / RFU ORM1 (11744905_x_at) / Fold change /veh ORM1 (11744905_x_at) / RFU CCDC152 (11743942_at) / Fold change /veh CCDC152 (11743942_at) / RFU ECM1 (11717891_a_at) / Fold change /veh ECM1 (11717891_a_at) / RFU IL23R (11748794_a_at) / Fold change /veh IL23R (11748794_a_at) / RFU TNFAIP8L3 (11732012_x_at) / Fold change /veh TNFAIP8L3 (11732012_x_at) / RFU MBOAT4 (11741988_at) / Fold change /veh MBOAT4 (11741988_at) / RFU 11764193_at / Fold change /veh 11764193_at / RFU TMEM53 (11763286_at) / Fold change /veh TMEM53 (11763286_at) / RFU MAGEB2 (11727129_at) / Fold change /veh MAGEB2 (11727129_at) / RFU TMEM200A (11744735_a_at) / Fold change /veh TMEM200A (11744735_a_at) / RFU CCDC152 (11751479_a_at) / Fold change /veh CCDC152 (11751479_a_at) / RFU FAM211A (11726209_a_at) / Fold change /veh FAM211A (11726209_a_at) / RFU RGS16 (11746705_a_at) / Fold change /veh RGS16 (11746705_a_at) / RFU VCAN (11755009_s_at) / Fold change /veh VCAN (11755009_s_at) / RFU RHOB (11743442_s_at) / Fold change /veh RHOB (11743442_s_at) / RFU RGS16 (11720943_a_at) / Fold change /veh RGS16 (11720943_a_at) / RFU RGS16 (11720944_at) / Fold change /veh RGS16 (11720944_at) / RFU, VPS4B / Fold change vs veh, VPS4B / RFU, CREB1 / Fold change vs veh, CREB1 / RFU, DNAJC13 / Fold change vs veh, DNAJC13 / RFU, GNAQ / Fold change vs veh, GNAQ / RFU, CDK5R1 / Fold change vs veh, CDK5R1 / RFU, ZRANB3 / Fold change vs veh, ZRANB3 / RFU, CUL4A / Fold change vs veh, CUL4A / RFU, CCNY / Fold change vs veh, CCNY / RFU, UFL1 / Fold change vs veh, UFL1 / RFU, COG3 / Fold change vs veh, COG3 / RFU, DIAPH2 / Fold change vs veh, DIAPH2 / RFU, SKA2 / Fold change vs veh, SKA2 / RFU, AFF3 / Fold change vs veh, AFF3 / RFU, LMF1 / Fold change vs veh, LMF1 / RFU, IPO11 / Fold change vs veh, IPO11 / RFU, DFFB / Fold change vs veh, DFFB / RFU, FOXP1 / Fold change vs veh, FOXP1 / RFU, CARD8 / Fold change vs veh, CARD8 / RFU, STRN3 / Fold change vs veh, STRN3 / RFU, ADK / Fold change vs veh, ADK / RFU, RASSF2 / Fold change vs veh, RASSF2 / RFU, WIPF1 / Fold change vs veh, WIPF1 / RFU, LARP1B / Fold change vs veh, LARP1B / RFU, RASA1 / Fold change vs veh, RASA1 / RFU, RB1 / Fold change vs veh, RB1 / RFU, PPFIA1 / Fold change vs veh, PPFIA1 / RFU, MAT2A / Fold change vs veh, MAT2A / RFU, CCT5 / Fold change vs veh, CCT5 / RFU, WDR92 / Fold change vs veh, WDR92 / RFU, CUX1 / Fold change vs veh, CUX1 / RFU, TTC7A / Fold change vs veh, TTC7A / RFU, TMEM135 / Fold change vs veh, TMEM135 / RFU, DEPTOR / Fold change vs veh, DEPTOR / RFU, CPM / Fold change vs veh, CPM / RFU, DNAJB6 / Fold change vs veh, DNAJB6 / RFU, CACNA2D3 / Fold change vs veh, CACNA2D3 / RFU, DTX4 / Fold change vs veh, DTX4 / RFU, TFCP2 / Fold change vs veh, TFCP2 / RFU, GMCL1 /// GMCL1P1 / Fold change vs veh, GMCL1 /// GMCL1P1 / RFU, AEBP2 / Fold change vs veh, AEBP2 / RFU, SNHG1 /// SNORD22 /// SNORD25 /// SNORD26 /// SNORD27 /// SNORD28 /// SNORD29 /// SNORD31 / Fold change vs veh, SNHG1 /// SNORD22 /// SNORD25 /// SNORD26 /// SNORD27 /// SNORD28 /// SNORD29 /// SNORD31 / Fold change (Aza/veh), C12orf56 (ProbeSet 11735607_a_at) / Fold change (ACY-1035/veh), C12orf56 (ProbeSet 11735607_a_at) / Fold change (Aza/veh), FGFR1OP (ProbeSet 11751329_s_at) / Fold change (ACY-1035/veh), FGFR1OP (ProbeSet 11751329_s_at) / Fold change (Aza/veh), VPS36 (ProbeSet 11739960_a_at) / Fold change (ACY-1035/veh), VPS36 (ProbeSet 11739960_a_at) / RFU SYPL1 (11715823_x_at) / Fold change /veh SYPL1 (11715823_x_at) / RFU IGFBP7 (11715501_s_at) / Fold change /veh IGFBP7 (11715501_s_at) / RFU REEP3 (11722064_at) / Fold change /veh REEP3 (11722064_at) / RFU IGLL1 (11728026_x_at) / Fold change /veh IGLL1 (11728026_x_at): dose or concentration left out as unconfirmed
Details: ProbeSet 11744854_x_at; LIST B

In the case of `Nc1ncn([C@@H]2O[C@H](CO)[C@@H](O)[C@H]2O)c(=O)n1` [azacitidine], the “RFU, ZNF28” value was 60.82 RFU.

From PMC5218480 (PLoS ONE, 2017)
